# Assay results published in article PMC9449155 (Brazilian Journal of Otorhinolaryngology, 2017).
# What was measured:
# guinea pigs = conditions: guinea pig, in vivo; cited from earlier work
# Source text: (§1) Fishman et al. reported that in a large review of patients with culture-positive, persistent tympanostomy tube otorrhea, S. aureus accounted for 52% of the organisms cultured, of which 57% were MRSA.[20] Presently, the most commonly used antibiotic against MRSA is vancomycin. […] Although there is no emergence of VRSA in CSOM, new anti-MRSA peptides need to be studied for the prevention of VRSA or VISA. Mandal et al. reported that approximately 15% of MRSA ...
# MRSA = test: Inhibition zone assay; assay type: cell-based, Methicillin-resistant Staphylococcus aureus; conditions: 37 °C overnight
# Procedure: MRSA was grown overnight for 18 h at 37 °C in 10 mL of LB broth and then 10 μL of this culture was inoculated into 10 mL of fresh LB and incubated for an additional 3 h at 37 °C to obtain mid-logarithmic phase organisms. The bacterial suspension (2 × 10^5 CFU/mL in LB) was mixed with 0.7% agarose and poured into a 10 cm Petri dish. […] The diameters of the bacterial clearance zones surrounding the circle paper were measured for the quantitation of inhibitory activities.
# [1] = laboratory experiments and clinical studies; cited from earlier work
# Source text: as §1
# [2] = paper disc on agarose plate, MRSA, zone size dose-dependent (Fig. 2)
compound,measurement,setting,value
daptomycin,ototoxicity after topical application,guinea pigs,no ototoxicity
KRIVQRIKKWLR-NH2 [KR-12-a2],amount from which an inhibition zone against MRSA was produced,"MRSA; 10 μL aliquots of serial dilution on ≈6 mm paper discs, MRSA 2 × 10^5 CFU/mL in LB with 0.7% agarose",6.25 µg
same,amount giving the highest mean diameter of the inhibition zone,MRSA; [2],100 µg
same,amount giving the lowest mean diameter of the inhibition zone,MRSA; [2],6.25 µg
CN[C@H](CC(C)C)C(=O)N[C@H]1C(=O)N[C@@H](CC(N)=O)C(=O)N[C@H]2C(=O)N[C@H]3C(=O)N[C@H](C(=O)N[C@H](C(=O)O)c4cc(O)cc(O)c4-c4cc3ccc4O)[C@H](O)c3ccc(c(Cl)c3)Oc3cc2cc(c3O[C@@H]2O[C@H](CO)[C@@H](O)[C@H](O)[C@H]2O[C@H]2C[C@](C)(N)[C@H](O)[C@H](C)O2)Oc2ccc(cc2Cl)[C@H]1O [vancomycin],ototoxicity after vancomycin treatment,[1],did not demonstrate significant ototoxicity
